Earlier results, collected in US20130031645A1, “METHOD FOR HEPATIC DIFFERENTIATION OF DEFINITIVE ENDODERM CELLS” (priority 2009, published 2013).

Key:
[1] = test system: retinoic acid receptors (RARs)

## CC1=C(/C=C/C(C)=C/C=C/C(C)=C/C(=O)O)C(C)(C)CCC1 [ATRA, All-trans retinoic acid]
[1]
  affinity for the three RAR subtypes: approximately equal affinity
RXR receptors
  binding to the RXR receptors: does not bind
